How the values were obtained:
human FPRL2 = molecular target: T1, human FPRL2 (Homo sapiens, UniProt P25089); test: Intracellular calcium measurements (FLIPR), agonistic activity in HEK293-hFPRL2-Gα16 cells; type: cell-based; details: Fluo-4 calcium FLIPR, normalized to GLY14-Humanin 100 nM
T1 construct: expressed in transfected cells; host or cells: HEK293 (HEK293-hFPRL2-Gα16)
T1 sequence (P25089 1-353): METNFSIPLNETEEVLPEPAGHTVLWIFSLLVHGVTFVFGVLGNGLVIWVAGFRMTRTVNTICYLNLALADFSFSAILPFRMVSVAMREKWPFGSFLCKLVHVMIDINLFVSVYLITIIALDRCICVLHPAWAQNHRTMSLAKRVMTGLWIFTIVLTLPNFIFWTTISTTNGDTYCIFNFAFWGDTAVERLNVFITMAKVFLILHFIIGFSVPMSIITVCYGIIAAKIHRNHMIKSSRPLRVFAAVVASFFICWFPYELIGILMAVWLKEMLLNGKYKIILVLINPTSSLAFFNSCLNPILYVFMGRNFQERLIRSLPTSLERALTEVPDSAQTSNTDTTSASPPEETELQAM
Summary of the method: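 Peak values after baseline subtraction are expressed relative to 100 nM Gly14-Humanin; compounds diluted in assay buffer from 10 mM DMSO stocks.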

human ALX receptor = molecular target: T2, human ALX receptor (Homo sapiens, UniProt P25090); test: Intracellular calcium measurements (FLIPR), agonistic activity in HEK293-hALXR-Gα16 cells; type: cell-based; details: Fluo-4 calcium FLIPR, normalized to WKYMVm 10 nM
T2 construct: expressed in transfected cells; host or cells: HEK293 (HEK293-hALXR-Gα16)
T2 sequence (P25090 1-351): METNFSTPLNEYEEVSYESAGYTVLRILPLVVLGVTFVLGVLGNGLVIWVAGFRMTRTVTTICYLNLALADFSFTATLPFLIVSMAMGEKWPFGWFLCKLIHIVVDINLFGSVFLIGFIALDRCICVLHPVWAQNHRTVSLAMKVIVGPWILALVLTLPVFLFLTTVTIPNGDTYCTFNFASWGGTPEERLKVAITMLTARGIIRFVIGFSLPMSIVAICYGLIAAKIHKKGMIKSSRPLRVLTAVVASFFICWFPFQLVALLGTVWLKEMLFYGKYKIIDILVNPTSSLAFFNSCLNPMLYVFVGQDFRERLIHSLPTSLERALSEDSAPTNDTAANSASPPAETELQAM
Summary of the method: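 Agonist-induced calcium flux was recorded by FLIPR (488/540 nm) in HEK293-hALXR-Gα16 cells pre-loaded with Fluo-4 AM (1 μM, 60 min, 37°C). Peak signal above baseline, after subtracting buffer addition, was expressed relative to WKYMVm at 10 nM final.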

EC50 (human FPRL2) [nM]	EC50 (human ALX receptor) [nM]	SMILES
268	60	O=C(NCCCCN1CCCC1)[C@H]1[C@H](C(=O)NCC2CCCCC2)[C@@H]2C=C[C@H]1C21CC1 (racemic) [Example 125, (5R*)—N^5-(Cyclohexyl-methyl)-(6R*)—N^6-(4-pyrrolidin-1-yl-butyl)-(4S*,7R*)-[4,7-ethenylene-spiro[2.4]heptane]-5,6-dicarboxamide]
2740	95	CC(=O)CCCCNC(=O)[C@H]1[C@H](C(=O)NCCCCN2CCCC2)[C@H]2C=C[C@@H]1C21CC1 (racemic) [Example 127, (5R*)—N^5-(5-oxo-hexyl)-(6R*)—N^6-(4-pyrrolidin-1-yl-butyl)-(4S*,7R*)-[4,7-ethenylene-spiro[2.4]heptane]-5,6-dicarboxamide]
3440	120	O=C(NCCCCN1CCCC1)[C@H]1[C@H](C(=O)Nc2ncc([N+](=O)[O-])s2)[C@@H]2C=C[C@H]1C21CC1 (racemic) [Example 128, (5R*)—N^5-(5-Nitro-thiazol-2-yl)-(6R*)—N^6-(4-pyrrolidin-1-yl-butyl)-(4S*,7R*)-[4,7-ethenylene-spiro[2.4]heptane]-5,6-dicarboxamide]
1190	121	O=C(NCCCCN1CCCC1)[C@H]1[C@H](C(=O)Nc2ncc(Cl)s2)[C@@H]2C=C[C@H]1C21CC1 (racemic) [Example 129, (5R*)—N^5-(5-Chloro-thiazol-2-yl)-(6R*)—N^6-(4-pyrrolidin-1-yl-butyl)-(4S*,7R*)-[4,7-ethenylene-spiro[2.4]heptane]-5,6-dicarboxamide]
6370	166	N#Cc1cnc(NC(=O)[C@H]2[C@H](C(=O)NCCCCN3CCCC3)[C@H]3C=C[C@@H]2C32CC2)s1 (racemic) [Example 130, (5R*)—N^5-(5-Cyano-thiazol-2-yl)-(6R*)—N^6-(4-pyrrolidin-1-yl-butyl)-(4S*,7R*)-[4,7-ethenylene-spiro[2.4]heptane]-5,6-dicarboxamide]
358	173	O=C(NCCCCN1CCCC1)[C@H]1[C@H](C(=O)NCc2ccco2)[C@@H]2C=C[C@H]1C21CC1 (racemic) [Example 131, (5R*)—N^5-(Furan-2-yl-methyl)-(6R*)—N^6-(4-pyrrolidin-1-yl-butyl)-(4S*,7R*)-[4,7-ethenylene-spiro[2.4]heptane]-5,6-dicarboxamide]
122	263	O=C(NCCCCN1CCCC1)[C@H]1[C@H](C(=O)Nc2ccc(OC(F)(F)F)cc2)[C@@H]2C=C[C@H]1C21CC1 (racemic) [Example 133, (5R*)—N^5-(4-Trifluoromethoxyphenyl)-(6R*)—N^6-(4-pyrrolidin-1-yl-butyl)-(4S*,7R*)-[4,7-ethenylene-spiro[2.4]heptane]-5,6-dicarboxamide]
612	319	O=C(NCCCCN1CCCC1)[C@H]1[C@H](C(=O)NCCOc2ccccc2)[C@@H]2C=C[C@H]1C21CC1 (racemic) [Example 134, (5R*)—N^5-(2-Phenoxy-ethyl)-(6R*)—N^6-(4-pyrrolidin-1-yl-butyl)-(4S*,7R*)-[4,7-ethenylene-spiro[2.4]heptane]-5,6-dicarboxamide]
224	352	CC(C)CCNC(=O)[C@H]1[C@H](C(=O)NCCCCN2CCCC2)[C@H]2C=C[C@@H]1C21CC1 (racemic) [Example 135, (5R*)—N^5-(3-Methyl-butyl)-(6R*)—N^6-(4-pyrrolidin-1-yl-butyl)-(4S*,7R*)-[4,7-ethenylene-spiro[2.4]heptane]-5,6-dicarboxamide]
1180	365	CCCCNC(=O)[C@H]1[C@H](C(=O)NCCCCN2CCCC2)[C@H]2C=C[C@@H]1C21CC1 (racemic) [Example 136, (5R*)—N^5-Butyl-(6R*)—N^6-(4-pyrrolidin-1-yl-butyl)-(4S*,7R*)-[4,7-ethenylene-spiro[2.4]heptane]-5,6-dicarboxamide]
192	556	Cc1ccc(CNC(=O)[C@H]2[C@H](C(=O)NCCCCN3CCCC3)[C@H]3C=C[C@@H]2C32CC2)o1 (racemic) [Example 137, (5R*)—N^5-(5-Methyl-furan-2-yl-methyl)-(6R*)—N^6-(4-pyrrolidin-1-yl-butyl)-(4S*,7R*)-[4,7-ethenylene-spiro[2.4]heptane]-5,6-dicarboxamide]
332	570	Cc1nc2cc(NC(=O)[C@H]3[C@H](C(=O)NCCCCN4CCCC4)[C@H]4C=C[C@@H]3C43CC3)ccc2s1 (racemic) [Example 138, (5R*)—N^5-(2-Methyl-benzothiazol-5-yl)-(6R*)—N^6-(4-pyrrolidin-1-yl-butyl)-(4S*,7R*)-[4,7-ethenylene-spiro[2.4]heptane]-5,6-dicarboxamide]
152	731	O=C(NCCCCN1CCCC1)[C@H]1[C@H](C(=O)NCCc2ccccc2)[C@@H]2C=C[C@H]1C21CC1 (racemic) [Example 139, (5R*)—N^5-(2-Phenyl-ethyl)-(6R*)—N^6-(4-pyrrolidin-1-yl-butyl)-(4S*,7R*)-[4,7-ethenylene-spiro[2.4]heptane]-5,6-dicarboxamide]
1310	748	CC(=O)CCCNC(=O)[C@H]1[C@H](C(=O)NCCCCN2CCCC2)[C@H]2C=C[C@@H]1C21CC1 (racemic) [Example 140, (5R*)—N^5-(4-oxo-pentyl)-(6R*)—N^6-(4-pyrrolidin-1-yl-butyl)-(4S*,7R*)-[4,7-ethenylene-spiro[2.4]heptane]-5,6-dicarboxamide]
182	1330	O=C(NCCCCN1CCCC1)[C@H]1[C@H](C(=O)Nc2cnc(Cl)nc2)[C@@H]2C=C[C@H]1C21CC1 (racemic) [Example 142, (5R*)—N^5-(2-Chloro-pyrimidin-5-yl)-(6R*)—N^6-(4-pyrrolidin-1-yl-butyl)-(4S*,7R*)-[4,7-ethenylene-spiro[2.4]heptane]-5,6-dicarboxamide]
94	2060	O=C(NCCCCN1CCCC1)[C@H]1[C@H](C(=O)NCc2cccc(Br)c2)[C@@H]2C=C[C@H]1C21CC1 (racemic) [Example 143, (5R*)—N^5-(3-Bromophenyl-methyl)-(6R*)—N^6-(4-pyrrolidin-1-yl-butyl)-(4S*,7R*)-[4,7-ethenylene-spiro[2.4]heptane]-5,6-dicarboxamide]
324	2270	O=C(NCCCCN1CCCC1)[C@H]1[C@H](C(=O)Nc2nc3ccccc3s2)[C@@H]2C=C[C@H]1C21CC1 (racemic) [Example 144, (5R*)—N^5-(Benzothiazol-2-yl)-(6R*)—N^6-(4-pyrrolidin-1-yl-butyl)-(4S*,7R*)-[4,7-ethenylene-spiro[2.4]heptane]-5,6-dicarboxamide]
647	3650	CC(C)(C)c1cc(NC(=O)[C@H]2[C@H](C(=O)NCCCCN3CCCC3)[C@H]3C=C[C@@H]2C32CC2)no1 (racemic) [Example 145, (5R*)—N^5-(5-tert-Butyl-isoxazol-3-yl)-(6R*)—N^6-(4-pyrrolidin-1-yl-butyl)-(4S*,7R*)-[4,7-ethenylene-spiro[2.4]heptane]-5,6-dicarboxamide]

Reference: patent publication US8563714B2, “Bridged spiro [2.4] heptane derivatives as ALX receptor and/or FPRL2 agonists” (Actelion Pharmaceuticals Ltd., priority 2009, dated 2013)
